From ChEMBL document CHEMBL1138677, “Design, synthesis, and biological evaluation of new cyclic disulfide decapeptides that inhibit the binding of AP-1 to DNA” (J Med Chem, 2004)
pIC50: −log10 of the molar value. Residues, ends and D or L forms follow the SMILES beside them.

How the values were obtained:
Transcription factor AP1 = Transcription factor AP1 (Homo sapiens, UniProt P01100+P05412); assay: Inhibitory activity against transcription activator protein-1 (AP-1); type: protein-complex assay
[1] = molecular target: Transcription factor AP1 (Homo sapiens) (UniProt P05412+P01100); assay: Percent inhibition of transcription activator protein-1 (AP-1) in DNA binding assay at 100 uM; type: protein-complex assay

Transcription factor AP1, sequence (P05412 whole entry): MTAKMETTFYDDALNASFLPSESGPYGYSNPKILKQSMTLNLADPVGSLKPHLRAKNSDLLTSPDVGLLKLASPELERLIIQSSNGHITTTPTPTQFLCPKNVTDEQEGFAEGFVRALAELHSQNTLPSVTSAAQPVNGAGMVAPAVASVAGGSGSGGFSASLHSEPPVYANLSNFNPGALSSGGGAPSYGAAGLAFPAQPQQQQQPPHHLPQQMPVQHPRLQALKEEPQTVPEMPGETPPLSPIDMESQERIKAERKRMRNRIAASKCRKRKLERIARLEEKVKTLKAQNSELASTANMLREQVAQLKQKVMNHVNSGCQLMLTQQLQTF
Transcription factor AP1, sequence (P01100 whole entry): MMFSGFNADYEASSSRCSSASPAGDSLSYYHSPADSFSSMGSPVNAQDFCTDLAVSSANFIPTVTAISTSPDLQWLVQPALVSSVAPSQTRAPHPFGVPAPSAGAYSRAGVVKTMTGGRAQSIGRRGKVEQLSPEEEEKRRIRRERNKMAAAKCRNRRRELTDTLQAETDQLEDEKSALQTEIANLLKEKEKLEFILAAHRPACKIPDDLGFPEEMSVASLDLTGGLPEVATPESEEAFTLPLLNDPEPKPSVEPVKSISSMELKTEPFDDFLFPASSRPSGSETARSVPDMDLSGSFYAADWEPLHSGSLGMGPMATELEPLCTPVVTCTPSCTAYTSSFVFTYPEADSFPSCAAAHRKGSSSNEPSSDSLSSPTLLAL

SMILES	pIC50 (Transcription factor AP1)	inhibition [1]
CC(C)C[C@H](NC(=O)[C@H](CC(=O)O)NC(=O)[C@H](CC1CCCCC1)NC(=O)[C@H](CCC(N)=O)NC(=O)CN)C(=O)N[C@@H](C)C(=O)N[C@@H](CC(=O)O)C(=O)NCC(=O)O (HELM PEPTIDE1{G.Q.[Cha].D.L.A.D.G}$$$$V2.0)	< 4.00	
CC(C)C[C@H](NC(=O)[C@H](CC(=O)O)NC(=O)[C@H](CC(C)C)NC(=O)[C@H](CCCCN)NC(=O)CN)C(=O)N[C@@H](C)C(=O)N[C@@H](CC(=O)O)C(=O)NCC(=O)O (H-GKLDLADG-OH)	< 3.70	-2%
CC(C)C[C@H](NC(=O)[C@H](CC(=O)O)NC(=O)[C@H](CC(C)C)NC(=O)[C@H](CCC(N)=O)NC(=O)CN)C(=O)NCC(=O)N[C@@H](CC(=O)O)C(=O)NCC(=O)O (H-GQLDLGDG-OH)	< 3.70	1%
CC(C)C[C@H](NC(=O)[C@H](CC(=O)O)NC(=O)[C@H](CC(C)C)NC(=O)[C@@H](N)CCC(N)=O)C(=O)N[C@@H](C)C(=O)N[C@@H](CC(=O)O)C(=O)NCC(=O)O (H-QLDLADG-OH)	< 4.00	-2%
CC(C)C[C@H](NC(=O)[C@H](CC(=O)O)NC(=O)[C@H](CC(C)C)NC(=O)[C@H](CCC(N)=O)NC(=O)CN)C(=O)N[C@@H](C)C(=O)N[C@@H](CC(N)=O)C(=O)NCC(=O)O (H-GQLDLANG-OH)	4.28	64%
CC(C)C[C@H](NC(=O)[C@H](C)NC(=O)CN)C(=O)N[C@@H](CC(=O)O)C(=O)N[C@@H](CC(C)C)C(=O)N[C@@H](C)C(=O)N[C@@H](CC(=O)O)C(=O)NCC(=O)O (H-GALDLADG-OH)	< 4.00	29%
CC(C)C[C@H](NC(=O)[C@H](CC(=O)O)NC(=O)[C@H](CC(C)C)NC(=O)[C@H](CCC(=O)O)NC(=O)CN)C(=O)N[C@@H](C)C(=O)N[C@@H](CC(=O)O)C(=O)NCC(=O)O (H-GELDLADG-OH)	< 3.70	-2%
CC(C)C[C@H](NC(=O)[C@H](CC(=O)O)NC(=O)[C@H](C)NC(=O)[C@H](CCC(N)=O)NC(=O)CN)C(=O)N[C@@H](C)C(=O)N[C@@H](CC(=O)O)C(=O)NCC(=O)O (H-GQADLADG-OH)	< 4.00	11%
CC(C)C[C@H](NC(=O)[C@H](CCC(N)=O)NC(=O)CN)C(=O)N[C@@H](CC(=O)O)C(=O)N[C@@H](CC1CCCCC1)C(=O)N[C@@H](C)C(=O)N[C@@H](CC(=O)O)C(=O)NCC(=O)O (HELM PEPTIDE1{G.Q.L.D.[Cha].A.D.G}$$$$V2.0)	< 4.00	10%
CC(C)C[C@H](NC(=O)[C@H](CCC(N)=O)NC(=O)CN)C(=O)N[C@@H](CC(=O)O)C(=O)N[C@@H](C)C(=O)N[C@@H](C)C(=O)N[C@@H](CC(=O)O)C(=O)NCC(=O)O (H-GQLDAADG-OH)	< 4.00	7%

Continued, values first:

pIC50 (Transcription factor AP1)	inhibition [1]	SMILES
< 4.00	14%	CC(C)C[C@H](NC(=O)[C@H](CC(=O)O)NC(=O)[C@H](CC(C)C)NC(=O)[C@H](CCC(N)=O)NC(=O)CN)C(=O)N[C@@H](C)C(=O)N[C@@H](C)C(=O)NCC(=O)O (H-GQLDLAAG-OH)
< 4.00	42%	CC(C)C[C@H](NC(=O)[C@H](CC(=O)O)NC(=O)[C@H](CC(C)C)NC(=O)[C@H](CC(N)=O)NC(=O)CN)C(=O)N[C@@H](C)C(=O)N[C@@H](CC(=O)O)C(=O)NCC(=O)O (H-GNLDLADG-OH)
< 4.00	11%	CC(C)C[C@H](NC(=O)[C@H](CC(=O)O)NC(=O)[C@H](CC(C)C)NC(=O)[C@H](CCC(N)=O)NC(=O)CN)C(=O)N[C@@H](C)C(=O)N[C@@H](CC(=O)O)C(=O)O (H-GQLDLAD-OH)
5.10	81%	CC(C)C[C@H](NC(=O)[C@H](CC(=O)O)NC(=O)[C@H](CC(C)C)NC(=O)[C@H](CCC(N)=O)NC(=O)CN)C(=O)N[C@@H](C)C(=O)N[C@@H](CC(=O)O)C(=O)NCC(=O)O (H-GQLDLADG-OH)
< 3.70	-1%	CC(C)C[C@H](NC(=O)[C@H](C)NC(=O)[C@H](CC(C)C)NC(=O)[C@H](CCC(N)=O)NC(=O)CN)C(=O)N[C@@H](C)C(=O)N[C@@H](CC(=O)O)C(=O)NCC(=O)O (H-GQLALADG-OH)
< 4.00	5%	CC(C)C[C@H](NC(=O)[C@H](CC(=O)O)NC(=O)[C@H](CC(C)C)NC(=O)[C@H](CCC(N)=O)NC(=O)[C@H](C)N)C(=O)N[C@@H](C)C(=O)N[C@@H](CC(=O)O)C(=O)NCC(=O)O (H-AQLDLADG-OH)
< 4.00	15%	CC(C)C[C@H](NC(=O)[C@H](CC(=O)O)NC(=O)[C@H](CC(C)C)NC(=O)[C@H](CCC(N)=O)NC(=O)CN)C(=O)N[C@@H](C)C(=O)N[C@@H](CC(=O)O)C(=O)N[C@@H](C)C(=O)O (H-GQLDLADA-OH)
